Assays:
CTLL = experiment: Cell death assay (annexin V / PI flow cytometry); format: cell-based; conditions: murine CTLL; peptides at 150 μM
Method: (§1) An Annexin-V-FITC conjugated kit (Roche) was used for the assessment of outer leaflet exposure of phosphatidylserine (PS) in the plasma membrane of apoptotic cells. Staining was performed according to the manufacturer's instructions. A total of […] cells were analyzed by flow cytometry in a FACSCalibur cytofluometer (BD Biosciences). Necrotic cells were excluded by propidium iodide (PI) staining, and single annexin V positive cells were considered apoptotic. For apoptotic analysis the different peptides were used at 150 μM.

TS1αβ cells = experiment: Cell death assay (annexin V / PI flow cytometry); format: cell-based, murine; conditions: peptides at 150 μM
Method: as §1
Using flow cytometry detection of annexin V and PI, the inventors analyzed the capacity of DPT-C9 to induce apoptosis in TS1αβ cells cultured in presence of IL-2. In contrast to non penetrating C9 peptide, DPT-C9 induced a 6-fold increase of apoptosis.

Daudi = experiment: Cell death assay (annexin V / PI flow cytometry); format: cell-based, human; conditions: peptides at 150 μM
Method: as §1

Jurkat = experiment: Cell death assay (annexin V / PI flow cytometry); format: cell-based, human; conditions: peptides at 150 μM
Method: as §1

HeLa = experiment: Cell death assay (annexin V / PI flow cytometry); format: cell-based, human; conditions: peptides at 150 μM
Method: as §1

Daudi cells = experiment: Apoptosis assay (Annexin V-FITC), Example 2; format: cell-based, human; conditions: FIG. 1: 100 microM, 12 and 24 h, method says 150 mM, compared to control non-treated
Method: FIG. 1. Daudi cell line was cultured in RPMI 1640 medium in the presence of DPT-PP2Ah peptide (100 microM). At 12 and 24 h, we analyze the apoptotic effect of the peptide by annexine stainin.
(§2) Annexin V-FITC kit was used for detection of apoptosis and staining was performed according to the manufacturer's instructions. A total of 1×10^5 cells were analyzed by flow cytometry in a FACSCalibur cytometer (BD Biosicences). Necrotic cells were excluded by PI staining and annexin V positive cells were considered apoptotic. The effect of DPT-PP2Ah was compared to untreated control cells or to DPT-C9h-treated cells. Penetrating peptides were used at […]. The shuttle alone (DPT-sh1) was also used as a control.

[1] = tested on: triple negative breast cancer model BC11; experiment: In vivo tumor growth inhibition of primary human breast cancer xenografts; set-up: species or system mice; conditions: once daily for 5 weeks
Source text: The primary human xenografts were obtained as previously described (Marangoni et al., (2007) Clin Cancer Res 13:3989-3998, de Plater et al., (2010) Br J Cancer 103:1192-1200. Spontaneously growing mammary tumors […] were xenografted into nude immunodeficient mice to allow pharmacological assessments, and maintained from nude mouse to nude mouse serially passages.
For therapeutic experimental assays, 5- to 8-week old Swiss nu/nu female mice received a subcutaneous graft of tumor fragments with a volume of approximately 15 mm^3. Tumors developed at the graft site 2 to 6 weeks later. Mice bearing growing tumors with a volume of 40 to 200 mm^3 were individually identified and randomly assigned to the control or treatment groups (9-10 animals in each group) and treatments were started on day 1. Mice were weighed twice a week. Tumour-bearing mice were sacrificed when the tumor volume reached 2500 mm^3, defined as the ethical limit. Tumor volumes and antitumor activity were evaluated as previously reported (Marangoni et al., (2007) Clin Cancer Res 13:3989-3998).
DPT-PP2Ah peptide diluted in water/glucose (1 to 25 mg/kg) was given by intraperitoneally route 7 days per week.
To evaluate the potential antitumor effect of DPT-PP2Ah, we treated mice bearing the triple negative breast cancer model BC11. […]

[2] = tested on: primary cells isolated from xenograft model of lung cancer (LCF25); experiment: Apoptosis by annexin staining in primary cells from xenograft model; format: cell-based; conditions: 100 microM, 16 h, compared to control non-treated cells
Method: (§3) FIG. 2 Cell isolated form xenograft models of lung cancer (LCF25), breast cancer (BC52) and uveal melanoma (KMP41) were cultured in DMEM medium in the absence (control) or in the presence of 100 microM of DPT-PP2Ah peptide. After 16 h of culture, apoptosis was estimated by annexin staining.
as §2

[3] = tested on: primary cells isolated from xenograft model of uveal melanoma (KMP41); experiment: as above; format: cell-based; conditions: 100 microM, 16 h, compared to control non-treated cells
Method: as §3, §2

[4] = tested on: primary cells isolated from xenograft model of breast cancer (BC52); experiment: as above; format: cell-based; conditions: 100 microM, 16 h, compared to control non-treated cells
Method: as §3, §2

For “VKKKKIKREIKI-YVETLDGIFEQWAHSEDL (VKKKKIKREIKIYVETLDGIFEQWAHSEDL; Synthetic human DPT-C9) [DPT-C9h]”, the “cell death (in words)” value (CTLL) was “unable to cause cell death”, the “induction of apoptosis / cell death (in words)” value (TS1αβ cells) was “unable to cause cell death” and the increase of apoptosis (Daudi) was 5 fold. The increase of apoptosis (Jurkat) was 5 fold, the increase of apoptosis (HeLa) was 5 fold and the “apoptosis (annexin staining)” value (Daudi cells) was “lower apoptosis”.
“VKKKKIKREIKIDTLDHIRALDRLQEVPHEGP (Synthetic DPT-PP2Ah)” was tested, and the “tumor growth inhibition (TGI)” value ([1]; 1 mg/kg intraperitoneally, relative to 5 mg/kg) was “lower”, the “tumor growth inhibition (TGI)” value ([1]; 5 mg/kg intraperitoneally, end of treatment) was “significant tumor growth inhibition” and the “apoptosis (annexin staining)” value [2] was “induces apoptosis”. For the same substance, the “apoptosis (annexin staining)” value [3] was “induces apoptosis”, the “apoptosis (annexin staining)” value [4] was “induces apoptosis” and the “apoptosis (annexin staining)” value (Daudi cells) was “strongly induces apoptosis”.
